Measurements published in the supplement of paper PMC11699113.

System: ED cells (E. derm NBM-6, ATCC CCL-57)
Assay: cell viability (ATP, CellTiter-Glo) relative to untreated control (fraction of control); higher = less cytotoxic

Cc1cc(C#N)cc(C)c1Oc1nc(Nc2ccc(C#N)cc2)nc(N)c1Br [etravirine]
cell viability
Conditions	0.5 µM	2 µM	5 µM	10 µM	25 µM	50 µM	80 µM	100 µM	200 µM	300 µM
incubation time: 1h	1.03	1.02	0.959	0.693	0.424	0.372	0.346	0.329	0.328	0.322
incubation time: 24h	1.06	1.02	1.04	0.986	0.866	0.817	0.679	0.674	0.413	0.249
incubation time: 72h	1.01	0.978	0.953	0.894	0.829	0.796	0.75	0.723	0.541	0.412
incubation time: 144h	1	0.994	0.97	0.927	0.871	0.835	0.784	0.775	0.626	0.525

CC(C)(C)NC(=O)[C@@H]1C[C@@H]2CCCC[C@@H]2CN1C[C@@H](O)[C@H](Cc1ccccc1)NC(=O)[C@H](CC(N)=O)NC(=O)c1ccc2ccccc2n1 [saquinavir]
cell viability
Conditions	0.25 µM	0.5 µM	2 µM	5 µM	10 µM	20 µM	25 µM	30 µM	50 µM	65 µM
incubation time: 1h	1.03	1.04	1.03	1.04	1.03	1	1.01	1.02	0.958	0.868
incubation time: 24h	0.995	1.01	1	0.992	0.955	0.896	0.872	0.868	0.75	0.583
incubation time: 72h	1.04	1.03	1.01	0.956	0.904	0.798	0.753	0.687	0.306	0.0705
incubation time: 144h	1.02	1.02	1	0.951	0.922	0.808	0.743	0.699	0.201	0.0214

Nc1nc(NC2CC2)c2ncn([C@H]3C=C[C@@H](CO)C3)c2n1 [abacavir]
cell viability
Conditions	0.5 µM	2 µM	5 µM	10 µM	25 µM	50 µM	80 µM	100 µM	200 µM	300 µM
incubation time: 1h	1	0.999	1	1	1	0.999	0.994	0.99	0.983	0.982
incubation time: 24h	1.01	1.02	1.01	1.01	0.99	0.944	0.924	0.91	0.846	0.788
incubation time: 72h	1.02	1.03	0.999	0.978	0.925	0.846	0.785	0.745	0.604	0.506
incubation time: 144h	1.04	1.02	0.992	0.949	0.884	0.816	0.754	0.735	0.596	0.458

CC(C)c1nc(CN(C)C(=O)N[C@H](C(=O)N[C@@H](Cc2ccccc2)C[C@H](O)[C@H](Cc2ccccc2)NC(=O)OCc2cncs2)C(C)C)cs1 [ritonavir]
cell viability
Conditions	0.5 µM	2 µM	5 µM	10 µM	25 µM	50 µM	80 µM	100 µM	200 µM	300 µM
incubation time: 1h	1.05	1.05	1.05	1.03	1	0.976	0.899	0.879	0.881	0.887
incubation time: 24h	1.03	0.991	0.964	0.922	0.886	0.834	0.426	0.372	0.363	0.363
incubation time: 72h	1.01	0.949	0.868	0.81	0.763	0.686	0.00794	0.00652	0.00418	0.00806
incubation time: 144h	1	0.966	0.901	0.854	0.788	0.703	0.0753	0.0037	0.00476	0.00437

Cc1ccnc2c1NC(=O)c1cccnc1N2C1CC1 [nevirapine]
cell viability
Conditions	0.5 µM	2 µM	5 µM	10 µM	25 µM	50 µM	80 µM	100 µM	200 µM	300 µM
incubation time: 1h	1.05	1.04	1.05	1.05	1.05	1.04	1.05	1.04	1.05	1.04
incubation time: 24h	1.06	1.06	1.07	1.07	1.08	1.09	1.06	1.08	1.05	1.04
incubation time: 72h	1.04	1.05	1.07	1.07	1.06	1.06	1.03	1.02	0.958	0.924
incubation time: 144h	1	1.02	1.02	1.03	1.02	0.989	0.962	0.961	0.886	0.848

CC[C@H](C)[C@H](NC(=O)[C@H](CC(C)C)NC(=O)[C@H](CO)NC(=O)[C@H](Cc1cnc[nH]1)NC(=O)[C@@H](NC(=O)[C@H](CC(C)C)NC(=O)[C@H](CO)NC(=O)[C@@H](NC(=O)[C@H](Cc1ccc(O)cc1)NC(C)=O)[C@@H](C)O)[C@@H](C)CC)C(=O)N[C@@H](CCC(=O)O)C(=O)N[C@@H](CCC(=O)O)C(=O)N[C@@H](CO)C(=O)N[C@@H](CCC(N)=O)C(=O)N[C@@H](CC(N)=O)C(=O)N[C@@H](CCC(N)=O)C(=O)N[C@@H](CCC(N)=O)C(=O)N[C@@H](CCC(=O)O)C(=O)N[C@@H](CCCCN)C(=O)N[C@@H](CC(N)=O)C(=O)N[C@@H](CCC(=O)O)C(=O)N[C@@H](CCC(N)=O)C(=O)N[C@@H](CCC(=O)O)C(=O)N[C@@H](CC(C)C)C(=O)N[C@@H](CC(C)C)C(=O)N[C@@H](CCC(=O)O)C(=O)N[C@@H](CC(C)C)C(=O)N[C@@H](CC(=O)O)C(=O)N[C@@H](CCCCN)C(=O)N[C@@H](Cc1c[nH]c2ccccc12)C(=O)N[C@@H](C)C(=O)N[C@@H](CO)C(=O)N[C@@H](CC(C)C)C(=O)N[C@@H](Cc1c[nH]c2ccccc12)C(=O)N[C@@H](CC(N)=O)C(=O)N[C@@H](Cc1c[nH]c2ccccc12)C(=O)N[C@@H](Cc1ccccc1)C(N)=O [enfuvirtide]
cell viability
Conditions	0.03 µM	0.06 µM	0.125 µM	0.25 µM	0.5 µM	1 µM	2 µM	5 µM	8 µM	11 µM
incubation time: 1h	1.05	1.06	1.06	1.07	1.05	1.05	1.05	1.05	1.06	1.06
incubation time: 24h	1.06	1.07	1.06	1.07	1.06	1.06	1.06	1.07	1.05	1.04
incubation time: 72h	1.05	1.06	1.06	1.08	1.06	1.06	1.07	1.06	1.05	1.06
incubation time: 144h	1.02	1.03	1.03	1.04	1.03	1.03	1.04	1.04	1.06	1.04

O=C1Nc2ccc(Cl)cc2[C@@](C#CC2CC2)(C(F)(F)F)O1 [efavirenz]
cell viability
Conditions	0.5 µM	2 µM	5 µM	10 µM	20 µM	40 µM	50 µM	75 µM	100 µM	150 µM
incubation time: 1h	1.05	1.04	1.02	0.985	0.902	0.523	0.35	0.164	0.0891	0.0482
incubation time: 24h	0.985	0.989	1.01	0.999	0.979	0.618	0.194	0.00645	0.0077	0.00431
incubation time: 72h	1.04	1.04	1.04	1.03	1.01	0.907	0.659	0.0635	0.0176	0.00453
incubation time: 144h	1.02	1.02	1.02	1	0.969	0.862	0.574	0.128	0.113	0.00579

CCC[C@@]1(CCc2ccccc2)CC(O)=C([C@H](CC)c2cccc(NS(=O)(=O)c3ccc(C(F)(F)F)cn3)c2)C(=O)O1 [tipranavir]
cell viability
Conditions	0.25 µM	0.5 µM	2 µM	5 µM	10 µM	20 µM	50 µM	100 µM	140 µM	166 µM
incubation time: 1h	1.01	1	0.997	1	1	0.982	0.958	0.789	0.636	0.622
incubation time: 24h	1.01	1	0.993	1	1.03	0.966	0.885	0.718	0.505	0.498
incubation time: 72h	1.04	1.04	1.04	1.02	1.01	0.99	0.822	0.557	0.294	0.212
incubation time: 144h	1	1.01	1.01	1	0.996	0.973	0.772	0.405	0.109	0.0669

CC(C)CN(C[C@@H](OP(=O)(O)O)[C@H](Cc1ccccc1)NC(=O)O[C@H]1CCOC1)S(=O)(=O)c1ccc(N)cc1 [fosamprenavir]
cell viability
Conditions	0.03 µM	0.06 µM	0.125 µM	0.25 µM	0.5 µM	2 µM	5 µM	10 µM	20 µM	32 µM
incubation time: 1h	1.1	1.13	1.11	1.11	1.11	1.1	1.1	1.11	1.1	1.08
incubation time: 24h	1.01	1.01	1.01	1	0.994	1	0.979	0.978	0.978	0.949
incubation time: 72h	1.08	1.08	1.08	1.08	1.08	1.08	1.04	1.03	1	0.953
incubation time: 144h	1.02	1.04	1.04	1.06	1.05	1.05	1.04	1.02	0.993	0.957
